Patent US12421496B2, “Method for producing natural killer cell and use thereof” (KOREA RESEARCH INSTITUTE OF BIOSCIENCE AND BIOTECHNOLOGY, priority 2017, dated 2025)

Key:
[1] = test system: PBMC cells into which OSKM was introduced; test: Efficiency of direct reprogramming depending on composition of NKIM-II medium; format: cell-based, human; conditions: added to NKIM-II medium, cultured for 29 days after 6 days in NKIM-I
Protocol: (§1) After introducing reprogramming factors (Oct4, Sox2, Klf4, and Myc) into PBMC cultured in the NKIM-I medium and NKIM-II medium, a mixture additive was added to the medium for analysis to promote the production capacity of natural killer cells produced by direct reprogramming.
In the case of NKIM-II medium, after introducing OSKM into PBMC cells, the following day, 1×10^5 transformed cells were added to a 48-well culture dish and cultured in NKIM-I medium for 6 days, and then these cells were cultured for 29 days in a medium in which StemRegenin I, which is an aryl hydrocarbon receptor antagonist, CH-223191, or FICZ, which is an aryl hydrocarbon receptor agonist, was added to NKIM-II.

PBMC (CD34−CD56−) cells = test: Role of GSK3β inhibitor in direct reprogramming from PBMC to natural killer cells, flow cytometry; format: cell-based, human; conditions: when CT99021 (5 μM) was not added to NKIM-I medium, compared with added; 24th day
Protocol: On the 24th day when direct reprogramming was started as in Example 1, the cells were recovered and stained using antibodies against CD56 and CD4 attached with fluorescence and then the group of natural killer cells (CD56^+ and CD4^−) was analyzed by flow cytometry.

[2] = test system: PBMC into which OSKM was introduced; test: Efficiency of direct reprogramming depending on composition of NKIM-I medium; format: cell-based, human; conditions: single additive in NKIM-I medium compared with the condition without additives
Protocol: as §1
Specifically, in the case of NKIM-I medium, after introducing OSKM into PBMC, the following day, 1×10^5 transformed cells were added to a 48-well culture dish in the reprogramming culture process with different combinations of 5 μM CHIR 99021, 2 mM LiCl, […], and 20 ng/mL human IL-15 in NKIM-I medium, and the production capacity of CD56+ induced natural killer cells was thereby confirmed.

SW620 = test: In vivo anti-cancer effect, subcutaneous SW620 tumor in nude mice; parameters: species or system Balb/c-nude mouse; conditions: 2 mg/kg i.p. every other day for two weeks; day 28
Protocol: In addition, in vivo experiments were performed using mice to verify the anti-cancer effect of induced natural killer cells. The day after subcutaneous injection of 2×10^6 Sw620 into the back of 8-week-old nude mice (Balb/c-nude mouse, average weight 20 g to 25 g), induced natural killer cells (5×10^6, 1.5×10^7) and 2 mg/kg of doxorubicin were injected. Induced natural killer cells were injected intravenously (i.v.) twice on D1 and D4, and doxorubicin was injected intraperitoneally (i.p) every two days (every other day) for two weeks. On the 28th day, the mice of each group were sacrificed by cervical dislocation technique, and the protruding cancer masses formed under the skin of the mice of each group were extracted. The extracted Sw620 cancer was compared by group to confirm the anti-cancer effect of induced natural killer cells (FIG. 13A).

## Cc1ccccc1N=Nc1ccc(NC(=O)c2ccnn2C)c(C)c1 [CH-223191]
[1]
  yield of induced natural killer cells: significantly increased

## Cc1c[nH]c(-c2cnc(NCCNc3ccc(C#N)cn3)nc2-c2ccc(Cl)cc2Cl)n1 [CT99021]
PBMC (CD34−CD56−) cells
  differentiation into natural killer cells (CD56+ and CD4−): significantly lowered
[2]
  production of CD56+CD3− induced natural killer cells: effect of promoting the production

## O=Cc1c2[nH]c3ccccc3c2cc2[nH]c3ccccc3c12 [FICS]
[1]
  yield of induced natural killer cells: significantly reduced

## [Cl-].[Li+] [LiCl]
[2]
  production of CD56+CD3− induced natural killer cells: effect of promoting the production

## CC(C)n1cnc2c(NCCc3ccc(O)cc3)nc(-c3csc4ccccc34)nc21.Cl [StemRegenin I, (4-(2-((2-benzo[b]thiphen-3-yl)-9-isopropyl-9H-purin-6-yl)amino)ethyl)phenol hydrochloride]
[1]
  yield of induced natural killer cells: significantly increased
[2]
  production of CD56+CD3− induced natural killer cells: effect of promoting the production

## COc1cccc2c1C(=O)c1c(O)c3c(c(O)c1C2=O)C[C@@](O)(C(=O)CO)C[C@@H]3O[C@H]1C[C@H](N)[C@H](O)[C@H](C)O1 [doxorubicin]
SW620
  tumor size: 262 mm^3

## IL-15: human interleukin 15, cytokine additive
[2]
  production of CD56+CD3− induced natural killer cells: effect of promoting the production

B1: IL-7: human interleukin 7, cytokine additive (protein, UniProt P13232 26-177, looked up)
Interleukin-7: DCDIEGKDGKQYESVLMVSIDQLLDSMKEIGSNCLNNEFNFFKRHICDANKEGMFLFRAARKLRQFLKMNSTGDFDLHLLKVSEGTTILLNCTGQVKGRKPAALGEAQPTKSLEENKSLKEQKKLNDLCFLKRLLQEIKTCWNKILMGTKEH
[2]
  production of CD56+CD3− induced natural killer cells: effect of promoting the production
